In patent publication EP4610269A1, “UROKINASE PLASMINOGEN ACTIVATOR SURFACE RECEPTOR (UPAR) LIGANDS FOR DIAGNOSTIC OR THERAPEUTIC USE” (3B Pharmaceuticals GmbH, priority 2024, dated 2025):
Like-named read-outs stand apart in the source and are kept apart here. *1 amine or outer side, *2 acyl side, *3 side chain or, on linkers, in order; H or OH if unused. Where a SMILES comes first, the peptide text is derived from it. Bridges are numbered along the chain shown (N, C = ends). [ ]: non-standard residue; d: D form. The star is where a group is joined. DOTA = O=C(O)CN1CCN(CC(=O)O)CCN(CC(=O)*)CCN(CC(=O)O)CC1; Ethylenediamine = C(CN[*:2])N[*:1]; Hyp = O=C(O)[C@@H]1C[C@@H](O)CN1; NMeQ = CN[C@@H](CCC(N)=O)C(=O)O; Pentanoyl(4-Me) = CC(C)CCC(=O)*; Cit = NC(=O)NCCC[C@H](N)C(=O)O; Chg = N[C@H](C(=O)O)C1CCCCC1; Nle = CCCC[C@H](N)C(=O)O; Nva = CCC[C@H](N)C(=O)O; Pentanoyl = CCCCC(=O)*; CO = O=C([*:1])[*:2]; X2 = CCCOC(=O)*; NHBu = CCCCN*

What was measured:
[1] = target: T1, uPAR-expressing HEC-265 human endometrial adenocarcinoma cells (Homo sapiens, UniProt Q03405); assay: Competitive FACS binding assay; conditions: pIC50 category of FACS binding
T1 construct: Cell surface uPAR-expressing HEC-265 human endometrial adenocarcinoma cells; host or cells: HEC-265
Experimental: In order to determine binding of compounds according to the present invention to uPAR-expressing cells, a competitive FACS binding assay was established.
Cell surface uPAR-expressing HEC-265 human endometrial adenocarcinoma cells (Japanese Collection of Research Bioresources, #JCRB1142) were cultured in MEM Eagle with stable glutamine (Pan Biotech, #P04-09500) including 15% fetal bovine serum (Pan Biotech, #P30-3306) and 100 U/ml penicillin and 100 µg/mL streptomycin (Pan Biotech, #P06-07100). Cells were detached with Cell Dissociation Buffer (Thermo Scientific, #13151014) and washed in FACS buffer (PBS (Pan Biotech, #P04-36500) including 1% BSA (SeraCare, #AP-4510-80). Cells were diluted in FACS buffer to a final concentration of 500.000 cells per ml and 200 µl of the cell suspension are transferred to a u-shaped non-binding 96-well plate (Greiner Bio-One, #650901).
For IC50 determination, cells were incubated with 10 nM Bio--Ttds--Ttds--Ttds--Ttds-D-Cha-FsrYLWS-NH2) in the presence of increasing concentrations of non-labeled test compounds at 4°C for 1 hour. Cells were washed twice in FACS buffer. An additional incubation step with 1 µg/mL APC-Streptavidin (Miltenyi; #130-106-791) in 50 µL FACS buffer for 30 minutes on ice was performed followed by two washes with FACS buffer. Cells were resuspended in 200 µl FACS buffer and analyzed in an Attune NxT flow cytometer. Median fluorescence intensities (APC channel) were calculated by Attune NxT software and plotted against peptide concentrations. Four parameter logistic (4PL) curve fitting and pIC50 calculations were performed using ActivityBase software.

[2] = target: T2, human uPAR (uPAR-Fc) (Homo sapiens, UniProt Q03405); assay: Surface plasmon resonance (SPR) assay, single cycle kinetics; format: binding; conditions: pKD category for uPAR SPR activity assay, uPAR-Fc on Protein A-Chip, 25°C, read-out: pKD CAT (converted)
T2 construct: comprising amino acids Leu23-Arg303 according to UniProt entry Q03405.1; purchased R&D Systems 10378-UK-100
Experimental: Surface plasmon resonance (SPR) is an optical technique used to measure molecular interactions in real time. SPR occur when plane-polarized light hits a metal film under total internal reflection conditions. SPR signal is directly dependent on the refractive index of the medium on the sensor chip. In an SPR experiment, one molecule (i.e. uPAR) is immobilized on a sensor chip and binding to a second molecule (i.e. test compounds) is measured under flow. The binding of the compound on the surface changes the refractive index. In responses the reflection angle changes as compounds bind and dissociate on the immobilized protein on the surface. This response is measured in resonance units (RU). The RUs are proportional to the number of molecules bound to the surface. […] Kinetic binding constants and equilibrium binding constants can be derived from the sensorgrams.
Surface plasmon resonance (SPR) studies were performed using a Biacore™ T200 or S200 SPR system (Cytiva, formerly GE Life Sciences) to assess binding of compounds to recombinant uPAR protein.
In this example recombinant protein comprising the extracellular domains of human uPAR (uPAR-Fc, R&D Systems, CAT 10378-UK-100, comprising amino acids Leu23-Arg303 according to UniProt entry Q03405.1 and Fc region of human IgG1 at the C-terminus) was immobilized on a Protein A-Chip (Cytiva, CAT 29127555) according to the supplier's instructions. uPAR-Fc was diluted in Running Buffer (10 mM HEPES, 150 mM NaCl, 50 µM EDTA, 0.1% DMSO, 0.05% Tween-20, pH 7.4) to a final concentration of 100 nM and then flushed over the Protein A-Chip to immobilized ~2000 RUs.
Stock solutions of test compounds were prepared by dissolving each compound in DMSO. DMSO stock solution were diluted 1: 1000 in Running Buffer without DMSO. Further sequential dilutions were made with Running Buffer containing 0.1% DMSO. SPR binding analyses were performed in Single Cycle Kinetic (SCK) mode at 25°C. Flow cell without immobilized uPAR-Fc served as reference flow cell. The chip was regenerated with 10 mM Glycine, pH 1,5 to remove the uPAR-Fc from the chip surface after each SCK run. After every three SCK measurements, a blank run with Running Buffer instead of test compound was included to correct for baseline drifts (double reference substraction method). Table 11: SPR protocol steps for SCK with uPAR-Fc immobilized on a Protein A-Chip.
For each test compound, SPR raw data sensorgrams were recorded using the Biacore™ T200 or S200 control software. Sensorgrams were processed and analyzed with the Biacore™ Insight Evaluation software. […] The reference subtracted sensorgram for each test compound was further corrected for baseline drift by subtracting the sensorgram of a reference subtracted blank run (Running Buffer only). The dissociation constant (KD) was calculated from the double reference subtracted sensorgrams using the 1:1 Langmuir binding model. The pKD value (negative decadic logarithm of dissociation constant) was calculated using Microsoft Excel.

T2 sequence (Q03405 23-303): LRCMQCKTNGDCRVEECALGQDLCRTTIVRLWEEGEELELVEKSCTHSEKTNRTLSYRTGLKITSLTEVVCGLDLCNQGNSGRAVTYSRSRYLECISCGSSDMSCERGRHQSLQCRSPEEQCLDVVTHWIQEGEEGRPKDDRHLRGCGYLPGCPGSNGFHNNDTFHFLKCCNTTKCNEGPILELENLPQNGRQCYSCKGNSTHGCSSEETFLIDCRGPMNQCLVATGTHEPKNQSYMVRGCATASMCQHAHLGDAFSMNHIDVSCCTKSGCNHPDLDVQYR
T1 sequence (Q03405 23-335): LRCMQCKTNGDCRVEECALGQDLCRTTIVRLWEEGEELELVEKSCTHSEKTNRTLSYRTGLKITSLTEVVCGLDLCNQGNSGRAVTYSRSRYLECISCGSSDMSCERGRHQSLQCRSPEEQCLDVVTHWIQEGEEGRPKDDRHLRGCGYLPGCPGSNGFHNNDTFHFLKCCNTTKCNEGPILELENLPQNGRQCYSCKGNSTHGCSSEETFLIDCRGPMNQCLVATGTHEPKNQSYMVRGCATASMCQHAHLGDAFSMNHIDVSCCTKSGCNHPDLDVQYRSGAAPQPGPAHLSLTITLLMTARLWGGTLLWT

IC50 [1]	Kd [2]	Kd ([2]; single cycle kinetics)	Compound
0.0398 to 0.1 µM	0.01 to 0.1 µM		CCCOC(=O)N[C@H]1CSSC[C@@H](C(N)=O)NC(=O)[C@H](CCC)NC(=O)[C@H]([C@@H](C)CC)NC(=O)[C@@H]2C[C@@H](O)CN2C(=O)[C@@H]2CCCN2C(=O)[C@H](Cc2ccccc2)NC(=O)[C@H](Cc2ccc(O)cc2)NC(=O)[C@H](CCCCNC(=O)CN2CCN(CC(=O)O)CCN(CC(=O)O)CCN(CC(=O)O)CC2)NC(=O)[C@H](CCCNC(N)=O)NC1=O [UPAR-267, Prpoc-[Cys-Cit-Lys(DOTA)-Tyr-Phe-Pro-Hyp-Ile-Nva-Cys]-NH2] (X2-C[Cit]K(DOTA)YFP[Hyp]I[Nva]C-NH2; disulfide 1-10)
0.0126 to 0.0316 µM	0.00158 to 0.01 µM		CCCC[C@@H]1NC(=O)[C@H](CCCNC(=N)N)NC(=O)[C@@H](NC(=O)[C@H](CC(C)C)NC(=O)[C@H](CC(=O)O)NC(C)=O)CSSC[C@@H](C(N)=O)NC(=O)[C@@H](CC(C)C)NC(=O)[C@H]([C@@H](C)CC)NC(=O)[C@H](C)NC(=O)[C@@H]2CCCN2C(=O)[C@H](Cc2ccccc2)NC(=O)[C@H](Cc2ccc(O)cc2)NC1=O [UPAR-137, Ac-Asp-Leu-[Cys-Arg-Nle-Tyr-Phe-Pro-Ala-Ile-leu-Cys]-NH2] (Ac-DLCR[Nle]YFPAI[dL]C-NH2; disulfide 3-12)
≤ 0.01 µM		< 0.00158 µM	CC[C@H](C)[C@@H]1NC(=O)[C@@H](C)NC(=O)[C@@H]2CCCN2C(=O)[C@H](Cc2ccccc2)NC(=O)[C@H](Cc2ccc(O)cc2)NC(=O)[C@H](CCCNC(N)=O)NC(=O)[C@H](CCCNC(N)=O)NC(=O)[C@@H](NC(=O)CCC(C)C)CSSC[C@@H](C(N)=O)NC(=O)[C@H](CC(C)C)NC1=O [UPAR-445, iHex-[Cys-Cit-Cit-Tyr-Phe-Pro-ala-Ile-Leu-Cys]-NH2] ({Pentanoyl(4-Me)}-C[Cit][Cit]YFP[dA]ILC-NH2; disulfide 1-10)
≤ 0.01 µM	< 0.00158 µM		CC[C@H](C)[C@@H]1NC(=O)[C@@H](C)NC(=O)[C@@H]2CCCN2C(=O)[C@H](Cc2ccccc2)NC(=O)[C@H](Cc2ccc(O)cc2)NC(=O)[C@H](CCCNC(=N)N)NC(=O)[C@H](CCCNC(N)=O)NC(=O)[C@@H](NC(=O)CCC(C)C)CSSC[C@@H](C(N)=O)NC(=O)[C@H](CC(C)C)NC1=O [UPAR-160, iHex-[Cys-Cit-Arg-Tyr-Phe-Pro-ala-Ile-Leu-Cys]-NH2] ({Pentanoyl(4-Me)}-C[Cit]RYFP[dA]ILC-NH2; disulfide 1-10)
≤ 0.01 µM	< 0.00158 µM		CCCCNC(=O)N[C@H]1CSSC[C@@H](C(N)=O)NC(=O)[C@H](CCC)NC(=O)[C@H]([C@@H](C)CC)NC(=O)[C@@H]2C[C@@H](O)CN2C(=O)[C@@H]2CCCN2C(=O)[C@H](Cc2ccccc2)NC(=O)[C@H](Cc2ccc(O)cc2)NC(=O)[C@H](CCCCNC(=O)CN2CCN(CC(=O)O)CCN(CC(=O)O)CCN(CC(=O)O)CC2)NC(=O)[C@H]([C@@H](C)O)NC1=O [UPAR-242, nBuCAyl-[Cys-Thr-Lys(DOTA)-Tyr-Phe-Pro-Hyp-Ile-Nva-Cys]-NHz] ({NHBu-CO}-CTK(DOTA)YFP[Hyp]I[Nva]C-NH2; disulfide 1-10)
≥ 0.126 µM		0.01 to 0.1 µM	CC[C@H](C)[C@@H]1NC(=O)[C@@H](C)NC(=O)[C@@H]2CCCN2C(=O)[C@H](Cc2ccccc2)NC(=O)[C@H](Cc2ccc(O)cc2)NC(=O)[C@H](CCC(N)=O)N(C)C(=O)[C@H](CCCNC(N)=O)NC(=O)[C@@H](NC(=O)CCC(C)C)CSSC[C@@H](C(N)=O)NC(=O)[C@H](CC(C)C)NC1=O [UPAR-407, iHex-[Cys-Cit-Nmq-Tyr-Phe-Pro-ala-Ile-Leu-Cys]-NH2] ({Pentanoyl(4-Me)}-C[Cit][NMeQ]YFP[dA]ILC-NH2; disulfide 1-10)
≤ 0.01 µM		< 0.00158 µM	CCCCC(=O)N[C@H]1CSSC[C@@H](C(N)=O)NC(=O)[C@H](CCC)NC(=O)[C@H]([C@@H](C)CC)NC(=O)[C@@H](Cc2ccc(O)cc2)NC(=O)[C@@H]2CCCN2C(=O)[C@H](Cc2ccccc2)NC(=O)[C@H](Cc2ccc(O)cc2)NC(=O)[C@H](CCC(N)=O)NC(=O)[C@H](CCCNC(=N)N)NC1=O [UPAR-465, Pent-[Cys-Arg-Gln-Tyr-Phe-Pro-tyr-Ile-Nva-Cys]-NH2] (Pentanoyl-CRQYFP[dY]I[Nva]C-NH2; disulfide 1-10)
0.0126 to 0.0316 µM		0.00158 to 0.01 µM	CC[C@H](C)[C@@H]1NC(=O)[C@H]([C@@H](C)CC)NC(=O)[C@@H](C)NC(=O)[C@@H]2CCCN2C(=O)[C@H](Cc2ccccc2)NC(=O)[C@H](Cc2ccc(O)cc2)NC(=O)[C@H](CCC(N)=O)NC(=O)[C@H](CCCNC(N)=O)NC(=O)[C@@H](NC(=O)CCC(C)C)CSSC[C@@H](C(N)=O)NC1=O [UPAR-405, iHex-[Cys-Cit-Gln-Tyr-Phe-Pro-ala-Ile-Ile-Cys]-NH2] ({Pentanoyl(4-Me)}-C[Cit]QYFP[dA]IIC-NH2; disulfide 1-10)
≤ 0.01 µM		< 0.00158 µM	CCCCC(=O)N[C@H]1CSSC[C@@H](C(N)=O)NC(=O)[C@H](CCC)NC(=O)[C@H]([C@@H](C)CC)NC(=O)[C@@H]2C[C@@H](O)CN2C(=O)[C@@H]2CCCN2C(=O)[C@H](Cc2ccccc2)NC(=O)[C@H](Cc2ccc(O)cc2)NC(=O)[C@H](CCC(N)=O)NC(=O)[C@H](Cc2ccc(O)cc2)NC1=O [UPAR-454, Pent-[Cys-Tyr-Gln-Tyr-Phe-Pro-Hyp-Ile-Nva-Cys]-NH2] (Pentanoyl-CYQYFP[Hyp]I[Nva]C-NH2; disulfide 1-10)
0.0126 to 0.0316 µM		0.00158 to 0.01 µM	CCCCC(=O)N[C@H]1CSSC[C@@H](C(=O)NCCN)NC(=O)[C@H](CCC)NC(=O)[C@H]([C@@H](C)CC)NC(=O)[C@@H]2C[C@@H](O)CN2C(=O)[C@@H]2CCCN2C(=O)[C@H](Cc2ccccc2)NC(=O)[C@H](Cc2ccc(O)cc2)NC(=O)[C@H](CCC(N)=O)NC(=O)[C@H](CCCNC(N)=O)NC1=O [UPAR-430, Pent-[Cys-Cit-Gln-Tyr-Phe-Pro-Hyp-Ile-Nva-Cys]-en] (Pentanoyl-C[Cit]QYFP[Hyp]I[Nva]C-Ethylenediamine; disulfide 1-10)
≤ 0.01 µM	< 0.00158 µM		CC(C)CCC(=O)N[C@H]1CSSC[C@@H](C(N)=O)NC(=O)[C@H](CC(C)C)NC(=O)[C@H](C2CCCCC2)NC(=O)[C@@H](C)NC(=O)[C@@H]2CCCN2C(=O)[C@H](Cc2ccccc2)NC(=O)[C@H](Cc2ccc(O)cc2)NC(=O)[C@H](CCC(N)=O)NC(=O)[C@H](CCCNC(N)=O)NC1=O [UPAR-225, iHex-[Cys-Cit-Gln-Tyr-Phe-Pro-ala-Chg-Leu-Cys]-NH2] ({Pentanoyl(4-Me)}-C[Cit]QYFP[dA][Chg]LC-NH2; disulfide 1-10)
